Source: publication PMC13289949 (Biochemistry, 2025)
Read-outs that look alike come from different tables or passages of the source.

Columns and labels:
MtbFDTS [1] = biological target: T1, MtbFDTS (Mycobacterium tuberculosis, UniProt P9WG57); experiment: MtbFDTS oxidase reaction followed by NADPH consumption; format: biochemical; details: for increase in the rate of NADPH consumption: relative to control without ligand, >10× KACT, up to 250 μM ligand; for effect on the oxidase reaction (NADPH oxidation rate), in words: aerobic, no CH2H4folate, ligand up to 250 μM
T1 sequence (P9WG57 whole entry): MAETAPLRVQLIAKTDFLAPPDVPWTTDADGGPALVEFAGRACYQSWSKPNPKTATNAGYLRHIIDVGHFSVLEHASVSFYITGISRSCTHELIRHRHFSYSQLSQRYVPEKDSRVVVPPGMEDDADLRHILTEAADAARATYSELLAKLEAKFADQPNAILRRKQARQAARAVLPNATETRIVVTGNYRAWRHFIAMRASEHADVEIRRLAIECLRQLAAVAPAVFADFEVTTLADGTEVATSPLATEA

MtbFDTS [2] = biological target: T1, MtbFDTS; experiment: Hydrogen peroxide formation from MtbFDTS oxidase reaction; format: biochemical; details: NADPH and 100 μM plumbagin versus NADPH only
FAD-MtbFDTS complex = FAD-MtbFDTS complex (Mycobacterium tuberculosis, UniProt P9WG57); experiment: biochemical; format: binding
FAD-MtbFDTS complex, sequence (P9WG57 whole entry, one chain of several): as the sequence (P9WG57 whole entry) above

5-hydroxy-2,4-naphthoquinone [plumbagin]
increase in the rate of NADPH consumption (MtbFDTS [1]): 5–10 fold | rate increase of hydrogen peroxide formation (initial velocity) (MtbFDTS [2]): ~10 fold

Nc1nc(=O)c2c([nH]1)NCC(CNc1ccc(C(=O)N[C@@H](CCC(=O)O)C(=O)O)cc1)N2C=O (mixture of isomers) [folinic acid]
effect on the oxidase reaction (NADPH oxidation rate), in words (MtbFDTS [1]): display inhibition | Kd (FAD-MtbFDTS complex; read-out: apparent Kd, binding to the FAD-MtbFDTS complex): 1300 ± 200 nM | affinity of folinic acid for the dUMP-FAD-MtbFDTS ternary complex, in words (FAD-MtbFDTS complex; saturating concentration of dUMP, compared with FAD-MtbFDTS): much higher affinity

O=c1[nH]c(=O)n([C@H]2C[C@H](O)[C@@H](COP(=O)(O)O)O2)cc1F [5-FdUMP, 5-fluoro-deoxyuridylate]
affinity to the FAD-MtbFDTS complex, in words (FAD-MtbFDTS complex; compared with dUMP): less affinity

Cc1cn([C@H]2C[C@H](O)[C@@H](COP(=O)(O)O)O2)c(=O)[nH]c1=O [dTMP, 2′-deoxythymidine-5′-monophosphate]
effect on the oxidase reaction (NADPH oxidation rate), in words (MtbFDTS [1]): activated

O=c1ccn([C@H]2C[C@H](O)[C@@H](COP(=O)(O)O)O2)c(=O)[nH]1 [dUMP, 2′-deoxyuridine-5′-monophosphate]
effect on the oxidase reaction (NADPH oxidation rate), in words (MtbFDTS [1]): increase in rate | Kd (FAD-MtbFDTS complex): 1100 ± 500 nM

O=C1C=C(O)C(=O)c2ccccc21 [lawsone, 2-hydroxy-1,4-naphthoquinone]
increase in the rate of NADPH consumption (MtbFDTS [1]): 5–10 fold

CN(Cc1cnc2nc(N)nc(N)c2n1)c1ccc(C(=O)N[C@@H](CCC(=O)O)C(=O)O)cc1 [methotrexate]
effect on the oxidase reaction (NADPH oxidation rate), in words (MtbFDTS [1]): display inhibition
